{
  "source": "patent EP1057829A1",
  "about": "“Novel compounds and pharmaceutical compositions containing the same” (The Jordanian Pharmaceutical Manufacturing and Medical …, priority 1999, dated 2000)",
  "type_in_all_cases": "in vivo",
  "key": {"male rats": {"tested_on": "male rats", "assay": "Penile erection of male rats after oral administration, observed for 2 h", "conditions": "for ED50: Rattus norvegicus, 2 h, erectile response, ED50 values significantly different with a 95% confidence interval, read-out: Calculated ED50; for responding rats # / responding rats %: 10 rats tested, penile erection monitored during 2 h", "procedure": "The purpose of this study was to compare the biological activity of compound 7a with that of sildenafil. In particular, the respective ED50-value (ED=effective dose), erection episodes and penile erection indices of said compounds in the treatment of male rats were determined. The penile erection index is an established means of determining the erection promoting properties of a substance (see e.g. Ang, H.H., Sim, M.K., Pharm. Sci., 3, 117-119 (1997) and references cited therein).\nIn these experiments, the compounds 7a and sildenafil were administered to male rats orally. The doses used for both drugs were 0.0781, 0.1562, 0.3125 and 0.625 mg/kg body weight. Sildenafil was dissolved in distilled water, whereas 7a was dissolved in 1% HCl solution (aq). Control animals were administered with the vehicles only, i.e. distilled water or the 1% HCl solution. During the experiments, the rats were placed in glass cages for observation and had access to food and water. During 2 h after administration of the investigated compounds, the penile erection of the rats was monitored."}, "rats": {"tested_on": "rats", "assay": "Preliminary toxicity studies in rats", "procedure": "(§1) Moreover, according to preliminary toxicity studies in rats, the compound 7a is tolerated up to a dose of about […] body weight without any detrimental effects. […] Thus, high doses of 7a provide a particularly efficient means for treatment of erectile dysfunction."}, "[1]": {"assay": "Preliminary toxicity studies in rats", "conditions": "rat, in vivo, read-out: tolerated dose without any detrimental effects", "procedure": "as §1"}},
  "data": [
    {"smiles": "CCCc1nn(C)c2c(=O)[nH]c(-c3cc(S(=O)(=O)N4CCN(C)CC4)cc4c3OCC4)nc12", "note": "[Compound 7a, 5-[2,3-dihydro-5-(4-methylpiperazin-1-ylsulfonyl)-7-benzofuryl]-1-methyl-3-propyl-6,7-dihydro-1H-pyrazolo[4,3-d]pyrimidin-7-one]", "values": [
      {"measurement": "ED50", "setting": "male rats; male rats", "result": 0.247, "unit": "mg/kg"},
      {"measurement": "responding rats #", "setting": "male rats; dose 0.0781 mg/kg", "result": 3},
      {"measurement": "responding rats %", "setting": "male rats; dose 0.0781 mg/kg", "result": 30, "unit": "%"},
      {"measurement": "responding rats #", "setting": "male rats; dose 0.1562 mg/kg", "result": 4},
      {"measurement": "responding rats %", "setting": "male rats; dose 0.1562 mg/kg", "result": 40, "unit": "%"},
      {"measurement": "responding rats #", "setting": "male rats; dose 0.3125 mg/kg", "result": 4},
      {"measurement": "responding rats %", "setting": "male rats; dose 0.3125 mg/kg", "result": 40, "unit": "%"},
      {"measurement": "responding rats #", "setting": "male rats; dose 0.6250 mg/kg", "result": 8},
      {"measurement": "responding rats %", "setting": "male rats; dose 0.6250 mg/kg", "result": 80, "unit": "%"},
      {"measurement": "total number of observed erection episodes", "setting": "male rats; male rats, 0.0781-0.625 mg/kg, comparison with sildenafil (Fig. 1)", "result": "superior to sildenafil, especially at higher doses"},
      {"measurement": "calculated penile erection indices", "setting": "male rats; male rats, 0.0781-0.625 mg/kg, comparison with sildenafil (Fig. 2)", "result": "superior to sildenafil, especially at higher doses"},
      {"measurement": "toxicity and side-effects", "setting": "rats", "result": "completely nontoxic and free from undesirable side-effects"},
      {"measurement": "NOAEL", "setting": "[1]", "result": "~0.35", "unit": "mg/kg"}
    ]},
    {"smiles": "CCCc1nn(C)c2c(=O)[nH]c(-c3cc(S(=O)(=O)N4CCN(C)CC4)ccc3OCC)nc12", "note": "[Sildenafil, sildenafil, reference compound]", "values": [
      {"measurement": "ED50", "setting": "male rats; male rats", "result": 0.284, "unit": "mg/kg"},
      {"measurement": "responding rats #", "setting": "male rats; dose 0.0781 mg/kg", "result": 3},
      {"measurement": "responding rats %", "setting": "male rats; dose 0.0781 mg/kg", "result": 30, "unit": "%"},
      {"measurement": "responding rats #", "setting": "male rats; dose 0.1562 mg/kg", "result": 3},
      {"measurement": "responding rats %", "setting": "male rats; dose 0.1562 mg/kg", "result": 30, "unit": "%"},
      {"measurement": "responding rats #", "setting": "male rats; dose 0.3125 mg/kg", "result": 5},
      {"measurement": "responding rats %", "setting": "male rats; dose 0.3125 mg/kg", "result": 50, "unit": "%"},
      {"measurement": "responding rats #", "setting": "male rats; dose 0.6250 mg/kg", "result": 7},
      {"measurement": "responding rats %", "setting": "male rats; dose 0.6250 mg/kg", "result": 70, "unit": "%"}
    ]}
  ]
}
